Reference: ChEMBL document CHEMBL1201862, “PubChem BioAssay data set” (2004)
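The compound was tested at five concentrations on cells cultured in 96-well plates, with a 48-hour exposure period. GI50 is the concentration that inhibits growth by half.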 Activity calls are given as the source filed them. Rule as the data show it: active = GI50 up to about 1.1 µM and inactive = higher.

Columns and labels:
Experiment in all cases: NCI tumour cell line growth inhibition, 48 h
[1] = test system: LOX IMVI
[2] = test system: OVCAR-5
[3] = test system: RXF 631
[4] = test system: HOP-18
[5] = test system: NCI-H460
[6] = test system: NCI-H522
[7] = test system: SF-539
[8] = test system: HCT-15
[9] = test system: U-251
[10] = test system: NCI-H23
[11] = test system: 786-0
[12] = test system: HL-60
[13] = test system: SK-MEL-2
[14] = test system: HOP-62
[15] = test system: SW-620
[16] = test system: OVCAR-8
[17] = test system: M19-MEL
[18] = test system: UACC-257
[19] = test system: COLO 205
[20] = test system: Malme-3M
[21] = test system: SF-295
[22] = test system: UO-31
[23] = test system: HCC 2998
[24] = test system: LXFL 529
[25] = test system: M14
[26] = test system: HOP-92
[27] = test system: RXF 393
[28] = test system: SNB-19
[29] = test system: IGROV-1
[30] = test system: HCT-116
[31] = test system: TK-10
[32] = test system: K562
[33] = test system: KM12
[34] = test system: MOLT-4
[35] = test system: A549
[36] = test system: CCRF-CEM
[37] = test system: SNB-78
[38] = test system: KM-20L2
[39] = test system: EKVX
[40] = test system: A498
[41] = test system: SN12C
[42] = test system: ACHN
[43] = test system: SNB-75
[44] = test system: OVCAR-4
[45] = test system: SF-268
[46] = test system: SK-OV-3
[47] = test system: HT-29
[48] = test system: UACC-62
[49] = test system: SK-MEL-28
[50] = test system: RPMI-8226
[51] = test system: DLD-1
[52] = test system: OVCAR-3
[53] = test system: DMS-273

What does the source list for `O=C(CC(=O)N1N=C(n2ccc3ccccc32)CC1c1ccccc1)Nc1cccc(Cl)c1` (stereo not drawn)?
GI50 [1]: 66.4 µM (inactive); GI50 [2]: > 100 µM (inactive); GI50 [3]: > 100 µM (inactive); GI50 [4]: > 100 µM (inactive); GI50 [5]: > 100 µM (inactive); GI50 [6]: > 100 µM (inactive); GI50 [7]: > 100 µM (inactive); GI50 [8]: > 100 µM; GI50 [9]: > 100 µM (inactive); GI50 [10]: > 100 µM (inactive); GI50 [11]: > 100 µM (inactive); GI50 [12]: > 100 µM (inactive); GI50 [13]: > 100 µM (inactive); GI50 [14]: > 100 µM (inactive); GI50 [15]: > 100 µM (inactive); GI50 [16]: > 100 µM (inactive); GI50 [17]: > 100 µM (inactive); GI50 [18]: > 100 µM (inactive); GI50 [19]: > 100 µM (inactive); GI50 [20]: > 100 µM (inactive); GI50 [21]: > 100 µM (inactive); GI50 [22]: > 100 µM (inactive); GI50 [23]: > 100 µM (inactive); GI50 [24]: > 100 µM (inactive); GI50 [25]: > 100 µM (inactive); GI50 [26]: 16 µM (inactive); GI50 [27]: > 100 µM (inactive); GI50 [28]: > 100 µM (inactive); GI50 [29]: > 100 µM (inactive); GI50 [30]: > 100 µM (inactive); GI50 [31]: > 100 µM (inactive); GI50 [32]: > 100 µM (inactive); GI50 [33]: > 100 µM (inactive); GI50 [34]: > 100 µM (inactive); GI50 [35]: > 100 µM (inactive); GI50 [36]: > 100 µM (inactive); GI50 [37]: > 100 µM (inactive); GI50 [38]: > 100 µM (inactive); GI50 [39]: > 100 µM (inactive); GI50 [40]: > 100 µM (inactive); GI50 [41]: > 100 µM (inactive); GI50 [42]: > 100 µM (inactive); GI50 [43]: 60.4 µM (inactive); GI50 [44]: > 100 µM (inactive); GI50 [45]: > 100 µM (inactive); GI50 [46]: > 100 µM (inactive); GI50 [47]: > 100 µM (inactive); GI50 [48]: > 100 µM (inactive); GI50 [49]: > 100 µM (inactive); GI50 [50]: > 100 µM (inactive); GI50 [51]: > 100 µM (inactive); GI50 [52]: > 100 µM (inactive); GI50 [53]: > 100 µM (inactive)
